{"source": "patent US20070142295A1", "about": "“Thrombopoietic compounds” (AMGEN INC., priority 1998, published 2007)", "key": {"human mpl receptor": {"target": "T1, human mpl receptor (Homo sapiens, UniProt P40238)", "T1 construct": "murine 32D cells transfected with the full-length c-Mp1; expressed in transfected cells; host or cells: IL-3 dependent clone of murine 32D cells", "T1 sequence (P40238 26-635)": "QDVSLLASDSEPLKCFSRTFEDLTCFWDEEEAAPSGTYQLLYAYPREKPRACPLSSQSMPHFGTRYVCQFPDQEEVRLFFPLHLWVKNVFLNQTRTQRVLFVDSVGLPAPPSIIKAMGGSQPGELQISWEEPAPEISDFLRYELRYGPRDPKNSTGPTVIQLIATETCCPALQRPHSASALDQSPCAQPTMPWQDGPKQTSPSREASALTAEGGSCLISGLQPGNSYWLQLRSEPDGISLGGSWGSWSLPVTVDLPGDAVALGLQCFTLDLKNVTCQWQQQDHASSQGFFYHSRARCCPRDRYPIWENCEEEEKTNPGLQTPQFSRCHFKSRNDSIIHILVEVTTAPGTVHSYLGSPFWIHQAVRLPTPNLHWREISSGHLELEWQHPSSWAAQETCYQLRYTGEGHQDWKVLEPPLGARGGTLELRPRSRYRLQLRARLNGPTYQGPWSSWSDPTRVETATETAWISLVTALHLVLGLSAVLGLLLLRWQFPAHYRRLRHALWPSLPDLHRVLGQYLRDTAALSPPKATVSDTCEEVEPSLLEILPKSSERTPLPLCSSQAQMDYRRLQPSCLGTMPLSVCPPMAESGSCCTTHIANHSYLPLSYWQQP", "experiment": "TPO in vitro bioassay: mitogenic/cell-proliferation assay with IL-3 dependent murine 32D cells transfected with human mpl receptor", "format": "cell-based", "conditions": "cell proliferation assay", "method": "Bioactivity assay. The TPO in vitro bioassay is a mitogenic assay utilizing an IL-3 dependent clone of murine 32D cells that have been transfected with human mpl receptor. This assay is described in greater detail in WO 95/26746. Cells are maintained in MEM medium containing 10% Fetal Clone II and 1 ng/ml mIL-3. Prior to sample addition, cells are prepared by rinsing twice with growth medium lacking mIL-3. An extended twelve point TPO standard curve is prepared, ranging from 3333 to 39 pg/ml. Four dilutions, estimated to fall within the linear portion of the standard curve, (1000 to 125 pg/ml), are prepared for each sample and run in triplicate. A volume of 100 μl of each dilution of sample or standard is added to appropriate wells of a 96 well microtiter plate containing 10,000 cells/well. After forty-four hours at 37° C. and 10% CO2, MTS (a tetrazolium compound which is bioreduced by cells to a formazan) is added to each well. Approximately six hours later, the optical density is read on a plate reader at 490 nm. A dose response curve (log TPO concentration vs. O.D.—Background) is generated and linear regression analysis of points which fall in the linear portion of the standard curve is performed. Concentrations of unknown test samples are determined using the resulting linear equation and a correction for the dilution factor.\nThe resulting peptides are readily accessible by conventional solid phase peptide synthesis methods (Merrifiled, R. B., Journal of the American Chemical Society 85:2149 (1963)) with either Fmoc or t-Boc chemistry. […] This might be due to differences in the conditions used in the two assays. […] It is interesting to note that a wide range of length is tolerated by the linker. The optimal linker with the selected TMP monomers (SEQ ID NO: 1) apparently is composed of 8 glycines."}, "c-Mp1 [1]": {"target": "T2, c-Mp1 (Homo sapiens, UniProt P40238)", "T2 sequence (P40238 26-635)": "T1 sequence (P40238 26-635)", "conditions": "cited from earlier work"}, "c-Mp1 [2]": {"target": "T2, c-Mp1", "conditions": "cited from earlier work", "remark": "listed apart in the source"}, "platelets": {"test_system": "platelets", "experiment": "platelet production in normal mice, dose response with 7-day micro-osmotic pumps", "format": "in vivo", "method": "Mice. Normal female BDF1 approximately 10-12 weeks of age.\nBleed schedule. Ten mice per group treated on day 0, two groups started 4 days apart for a total of 20 mice per group. Five mice bled at each time point, mice were bled a minimum of three times a week. Mice were anesthetized with isoflurane and a total volume of 140-160 μl of blood was obtained by puncture of the orbital sinus. Blood was counted on a Technicon HIE blood analyzer running software for murine blood. Parameters measured were white blood cells, red blood cells, hematocrit, hemoglobin, platelets, neutrophils.\nTreatments. Mice were either injected subcutaneously for a bolus treatment or implanted with 7 day micro-osmotic pumps for continuous delivery. Subcutaneous injections were delivered in a volume of 0.2 ml. Osmotic pumps were inserted into a subcutaneous incision made in the skin between the scapulae of anesthetized mice. Compounds were diluted in PBS with 0.1% BSA. All experiments included one control group, labeled “carrier” that were treated with this diluent only. The concentration of the test articles in the pumps was adjusted so that the calibrated flow rate from the pumps gave the treatment levels indicated in the graphs.\nCompounds. A dose titration of the compound was delivered to mice in 7 day micro-osmotic pumps. Mice were treated with various compounds at a single dose of 100 ug/kg in 7 day osmotic pumps. Some of the same compounds were then given to mice as a single bolus injection."}}, "note": "pEC50, pIC50: −log10 of the molar value. Read-outs that look alike come from different tables or passages of the source. Positions of bridges follow the written chain, without caps; N, C: chain ends. Residues, ends and D or L forms follow the SMILES beside them. No end group written: not given here. PEG = not defined here"}
{"molecule": "CC[C@H](C)[C@H](N)C(=O)N[C@@H](CCC(=O)O)C(=O)NCC(=O)N1CCC[C@H]1C(=O)N[C@H](C(=O)N[C@@H](CC(C)C)C(=O)N[C@@H](CCCNC(=N)N)C(=O)N[C@@H](CCC(N)=O)C(=O)N[C@H]1CSSC[C@@H](C(=O)N[C@@H](CC(C)C)C(=O)N[C@@H](C)C(=O)N[C@@H](C)C(=O)N[C@@H](CCCNC(=N)N)C(=O)N[C@@H](C)C(=O)O)NC(=O)[C@H](CCC(N)=O)NC(=O)[C@H](CCCNC(=N)N)NC(=O)[C@H](CC(C)C)NC(=O)[C@H]([C@@H](C)O)NC(=O)[C@@H]2CCCN2C(=O)CNC(=O)[C@H](CCC(=O)O)NC(=O)[C@H]([C@@H](C)CC)NC(=O)CNC(=O)CNC(=O)CNC(=O)CNC(=O)CNC(=O)CNC(=O)CNC(=O)CNC(=O)[C@H](C)NC(=O)[C@H](CCCNC(=N)N)NC(=O)[C@H](C)NC(=O)[C@H](C)NC(=O)[C@H](CC(C)C)NC1=O)[C@@H](C)O", "note": "[Peptide 14] (H-IEGPTLRQCLAARAGGGGGGGGIEGPTLRQCLAARA-OH; disulfide 9-31; N-terminus assumed)", "values": [{"measurement": "in vitro bioactivity, in words", "setting": "human mpl receptor", "result": "inactive"}]}
{"molecule": "CC[C@H](C)[C@H](N)C(=O)N[C@@H](CCC(=O)O)C(=O)NCC(=O)N1CCC[C@H]1C(=O)N[C@H](C(=O)N[C@@H](CC(C)C)C(=O)N[C@@H](CCCNC(=N)N)C(=O)N[C@@H](CCC(N)=O)C(=O)N[C@@H](CS)C(=O)N[C@@H](CC(C)C)C(=O)N[C@@H](C)C(=O)N[C@@H](C)C(=O)N[C@@H](CCCNC(=N)N)C(=O)N[C@@H](C)C(=O)NCC(=O)NCC(=O)NCC(=O)NCC(=O)NCC(=O)NCC(=O)NCC(=O)NCC(=O)N[C@H](C(=O)N[C@@H](CCC(=O)O)C(=O)NCC(=O)N1CCC[C@H]1C(=O)N[C@H](C(=O)N[C@@H](CC(C)C)C(=O)N[C@@H](CCCNC(=N)N)C(=O)N[C@@H](CCC(N)=O)C(=O)N[C@@H](CS)C(=O)N[C@@H](CC(C)C)C(=O)N[C@@H](C)C(=O)N[C@@H](C)C(=O)N[C@@H](CCCNC(=N)N)C(=O)N[C@@H](C)C(=O)O)[C@@H](C)O)[C@@H](C)CC)[C@@H](C)O", "note": "[Peptide 15, IEGPTLRQCLAARA-GGGGGGGG-IEGPTLRQCLAARA] (H-IEGPTLRQCLAARAGGGGGGGGIEGPTLRQCLAARA-OH; N-terminus assumed)", "values": [{"measurement": "in vitro bioactivity, in words", "setting": "human mpl receptor", "result": "inactive"}]}
{"molecule": "CC[C@H](C)[C@H](N)C(=O)N[C@@H](CCC(=O)O)C(=O)NCC(=O)N1CCC[C@H]1C(=O)N[C@H](C(=O)N[C@@H](CC(C)C)C(=O)N[C@@H](CCCNC(=N)N)C(=O)N[C@@H](CCC(N)=O)C(=O)N[C@@H](Cc1c[nH]c2ccccc12)C(=O)N[C@@H](CC(C)C)C(=O)N[C@@H](C)C(=O)N[C@@H](C)C(=O)N[C@@H](CCCNC(=N)N)C(=O)N[C@@H](C)C(=O)NCCCC[C@H](NC(=O)CCNC(=O)[C@H](C)NC(=O)[C@H](CCCNC(=N)N)NC(=O)[C@H](C)NC(=O)[C@H](C)NC(=O)[C@H](CC(C)C)NC(=O)[C@H](Cc1c[nH]c2ccccc12)NC(=O)[C@H](CCC(N)=O)NC(=O)[C@H](CCCNC(=N)N)NC(=O)[C@H](CC(C)C)NC(=O)[C@@H](NC(=O)[C@@H]1CCCN1C(=O)CNC(=O)[C@H](CCC(=O)O)NC(=O)[C@@H](N)[C@@H](C)CC)[C@@H](C)O)C(N)=O)[C@@H](C)O", "note": "[TMP C-C dimer]", "values": [{"measurement": "pIC50", "setting": "c-Mp1 [1]; read-out: binding affinity", "result": 9.30}, {"measurement": "pEC50", "setting": "c-Mp1 [2]", "result": 10.00}]}
{"molecule": "IEGPTLRQALAARAGGGGGGGGIEGPTLRQALAARA-OH [Peptide 16, IEGPTLRQALAARA-GGGGGGGG-IEGPTLRQALAARA]", "values": [{"measurement": "in vitro bioactivity, in words", "setting": "human mpl receptor", "result": "inactive"}]}
{"molecule": "IEGPTLRQWLAARA-OH [TMP monomer, IEGPTLRQWLAARA]", "values": [{"measurement": "pIC50", "setting": "c-Mp1 [1]; read-out: IC50", "result": 8.70}, {"measurement": "pEC50", "setting": "c-Mp1 [2]", "result": 6.40}]}
{"molecule": "IEGPTLRQWLAARAGGGNGSGGIEGPTLRQWLAARA-OH [Peptide 21, TMP-GGGNGSGG-TMP]", "values": [{"measurement": "in vitro bioactivity, in words", "setting": "human mpl receptor", "result": "activity comparable to that of the -(Gly)8-linked analog"}]}
{"molecule": "IEGPTLRQWLAARAGPNGIEGPTLRQWLAARA-OH [Peptide 13, TMP-GPNG-TMP]", "values": [{"measurement": "fold increase in potency as compared to the monomer", "setting": "human mpl receptor", "result": "about 100 fold"}, {"measurement": "fold less active than the GGGG-linked analog", "setting": "human mpl receptor", "result": "> 10", "unit": "fold"}]}
{"molecule": "TMP-GGGC(PEG)GGGG-TMP (IEGPTLRQWLAARAGGGC(PEG)GGGGIEGPTLRQWLAARA; reading uncertain) [Peptide 20]", "values": [{"measurement": "activity compared with unpegylated rHu-MGDF", "setting": "platelets; 10 μg/kg/day vs 100 μg/kg/day unpegylated rHu-MGDF, same experiment", "result": "about equally active"}, {"measurement": "percent of maximal activity", "setting": "platelets; 10 μg/kg/day, 7-day micro-osmotic pumps", "result": "about 50%"}, {"measurement": "dose at which the maximum effect was seen", "setting": "platelets; 7-day micro-osmotic pumps, data not shown", "result": 100, "unit": "µg/kg/day"}, {"measurement": "in vitro bioactivity, in words", "setting": "human mpl receptor", "result": "higher in vitro bioactivity as compared to their unpegylated counterparts"}]}
{"molecule": "TMP-GGGK(PEG)GGGG-TMP (IEGPTLRQWLAARAGGGK(PEG)GGGGIEGPTLRQWLAARA; reading uncertain) [Peptide 19]", "values": [{"measurement": "in vitro bioactivity, in words", "setting": "human mpl receptor", "result": "higher in vitro bioactivity as compared to their unpegylated counterparts"}]}
